What was measured:
Phorbol Ester = experiment: Radioligand displacement; type: binding; settings: 10 μM fenethylline, average of two replicates
Nicotinic Ach = experiment: Radioligand displacement; type: binding; settings: 10 μM fenethylline, average of two replicates
Muscarinic M2 = Muscarinic M2 (Homo sapiens, UniProt P08172); experiment: Radioligand displacement; type: binding; settings: read-out: Inhib. (%)
[1] = type: in vivo, Swiss Webster mice; settings: fenethylline 50 mg/kg vs amphetamine 5 mg/kg
Adrenergic α1B = experiment: Radioligand displacement; type: binding; settings: 10 μM fenethylline, average of two replicates
Swiss Webster mice [2] = experiment: Conditioned place preference; type: in vivo; settings: training with fenethylline 20 mg/kg
L-Type Ca Channel = experiment: Radioligand displacement; type: binding; settings: 10 μM fenethylline, average of two replicates
Cannabinoid CB1 = Cannabinoid CB1 (Homo sapiens, UniProt P21554); experiment: Radioligand displacement; type: binding; settings: read-out: Inhib. (%)
Cannabinoid CB1, sequence (P21554 whole entry): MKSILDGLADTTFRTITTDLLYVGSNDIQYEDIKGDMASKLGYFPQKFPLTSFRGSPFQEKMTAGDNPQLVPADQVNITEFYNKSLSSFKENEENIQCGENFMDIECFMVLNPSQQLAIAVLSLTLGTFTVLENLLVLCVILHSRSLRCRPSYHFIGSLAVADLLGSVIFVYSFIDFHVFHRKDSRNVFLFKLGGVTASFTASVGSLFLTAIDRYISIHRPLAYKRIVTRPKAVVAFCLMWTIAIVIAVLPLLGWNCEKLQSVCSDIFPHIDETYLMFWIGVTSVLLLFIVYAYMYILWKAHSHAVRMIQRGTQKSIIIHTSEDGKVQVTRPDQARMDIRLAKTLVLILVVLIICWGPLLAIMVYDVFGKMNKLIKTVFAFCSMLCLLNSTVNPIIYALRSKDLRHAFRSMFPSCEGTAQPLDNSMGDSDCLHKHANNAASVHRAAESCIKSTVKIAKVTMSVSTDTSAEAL

Adrenergic β2 = Adrenergic β2 (Homo sapiens, UniProt P07550); experiment: Radioligand displacement; type: binding; settings: read-out: Inhib. (%)
Adrenergic β1 = Adrenergic β1 (Homo sapiens, UniProt P08588); experiment: Radioligand displacement; type: binding; settings: read-out: Inhib. (%)
GABAA – Site 1 = experiment: Radioligand displacement; type: binding; settings: 10 μM fenethylline, average of two replicates
Nicotinic Ach α1 = Nicotinic Ach α1 (Homo sapiens, UniProt P02708+P07510+Q07001); experiment: Radioligand displacement; type: binding; settings: read-out: Inhib. (%)
Nicotinic Ach α1, sequence (P02708 21-457): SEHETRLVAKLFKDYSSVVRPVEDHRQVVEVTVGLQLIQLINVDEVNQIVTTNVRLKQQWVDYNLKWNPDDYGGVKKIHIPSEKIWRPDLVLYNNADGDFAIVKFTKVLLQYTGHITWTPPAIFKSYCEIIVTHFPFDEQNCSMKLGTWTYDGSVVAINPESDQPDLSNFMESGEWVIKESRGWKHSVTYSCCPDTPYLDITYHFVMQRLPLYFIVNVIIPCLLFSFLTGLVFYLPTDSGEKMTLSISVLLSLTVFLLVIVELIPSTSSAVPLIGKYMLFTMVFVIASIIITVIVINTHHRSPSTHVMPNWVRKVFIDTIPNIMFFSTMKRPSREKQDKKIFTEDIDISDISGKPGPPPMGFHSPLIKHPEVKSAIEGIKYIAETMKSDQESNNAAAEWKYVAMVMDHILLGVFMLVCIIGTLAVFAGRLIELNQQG
Nicotinic Ach α1, sequence (P11230 24-501 partner): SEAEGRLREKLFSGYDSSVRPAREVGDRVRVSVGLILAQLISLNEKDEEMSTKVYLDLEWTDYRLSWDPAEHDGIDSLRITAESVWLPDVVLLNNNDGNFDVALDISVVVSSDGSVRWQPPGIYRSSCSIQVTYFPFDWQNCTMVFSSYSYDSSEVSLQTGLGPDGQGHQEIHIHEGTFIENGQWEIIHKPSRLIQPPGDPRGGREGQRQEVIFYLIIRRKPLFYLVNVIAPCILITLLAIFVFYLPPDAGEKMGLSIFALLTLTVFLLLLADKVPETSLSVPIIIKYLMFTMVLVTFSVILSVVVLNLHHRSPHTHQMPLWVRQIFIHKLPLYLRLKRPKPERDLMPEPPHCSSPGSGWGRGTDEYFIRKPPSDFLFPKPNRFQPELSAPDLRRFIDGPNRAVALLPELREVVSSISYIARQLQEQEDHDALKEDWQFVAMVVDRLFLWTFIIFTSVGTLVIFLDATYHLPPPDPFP
Nicotinic Ach α1, sequence (Q07001 22-517): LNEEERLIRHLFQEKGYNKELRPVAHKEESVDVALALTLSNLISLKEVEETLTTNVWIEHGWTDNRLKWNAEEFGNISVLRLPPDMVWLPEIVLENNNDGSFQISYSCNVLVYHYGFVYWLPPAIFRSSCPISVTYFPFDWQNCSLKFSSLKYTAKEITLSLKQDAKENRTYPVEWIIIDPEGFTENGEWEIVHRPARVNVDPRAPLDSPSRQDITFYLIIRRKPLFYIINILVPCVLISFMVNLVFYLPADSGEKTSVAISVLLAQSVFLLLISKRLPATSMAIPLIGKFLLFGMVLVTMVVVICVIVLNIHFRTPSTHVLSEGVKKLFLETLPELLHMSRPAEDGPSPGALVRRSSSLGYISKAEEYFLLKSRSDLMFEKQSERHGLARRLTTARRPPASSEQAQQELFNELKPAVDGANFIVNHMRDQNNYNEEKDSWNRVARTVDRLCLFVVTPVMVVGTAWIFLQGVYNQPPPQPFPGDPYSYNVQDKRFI
Nicotinic Ach α1, sequence (P07510 23-517): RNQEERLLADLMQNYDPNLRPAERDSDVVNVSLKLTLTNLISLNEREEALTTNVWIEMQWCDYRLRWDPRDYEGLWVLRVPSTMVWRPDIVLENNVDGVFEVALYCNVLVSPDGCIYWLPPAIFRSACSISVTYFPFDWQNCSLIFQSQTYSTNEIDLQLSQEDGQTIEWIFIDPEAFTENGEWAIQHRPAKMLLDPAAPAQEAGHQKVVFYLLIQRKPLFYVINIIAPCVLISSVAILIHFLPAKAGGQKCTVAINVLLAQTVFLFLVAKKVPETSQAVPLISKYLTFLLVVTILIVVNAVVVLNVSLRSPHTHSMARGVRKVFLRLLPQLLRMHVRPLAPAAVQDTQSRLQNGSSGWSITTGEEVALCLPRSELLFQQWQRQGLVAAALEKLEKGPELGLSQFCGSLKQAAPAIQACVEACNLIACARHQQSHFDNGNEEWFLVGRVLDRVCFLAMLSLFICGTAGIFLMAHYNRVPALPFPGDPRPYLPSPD

Prostanoid EP4 = Prostanoid EP4 (Homo sapiens, UniProt P35408); experiment: Radioligand displacement; type: binding; settings: read-out: Inhib. (%)
Prostanoid EP4, sequence (P35408 whole entry): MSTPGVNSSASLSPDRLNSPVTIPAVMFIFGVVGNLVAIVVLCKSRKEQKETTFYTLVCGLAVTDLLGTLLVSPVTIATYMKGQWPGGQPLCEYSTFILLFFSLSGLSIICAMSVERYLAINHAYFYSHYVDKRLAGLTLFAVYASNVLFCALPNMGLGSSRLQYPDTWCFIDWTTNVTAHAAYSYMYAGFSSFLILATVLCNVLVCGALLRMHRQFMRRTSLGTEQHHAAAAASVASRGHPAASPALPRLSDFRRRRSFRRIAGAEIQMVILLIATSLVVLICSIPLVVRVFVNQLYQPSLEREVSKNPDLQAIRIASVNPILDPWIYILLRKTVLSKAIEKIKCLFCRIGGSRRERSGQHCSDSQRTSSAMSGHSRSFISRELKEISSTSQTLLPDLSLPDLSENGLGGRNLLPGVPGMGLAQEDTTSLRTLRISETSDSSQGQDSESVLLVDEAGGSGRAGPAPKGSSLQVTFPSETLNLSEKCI

Adrenergic α2A = Adrenergic α2A (Homo sapiens, UniProt P08913); experiment: Radioligand displacement; type: binding; settings: read-out: Inhib. (%)
Adrenergic α2A, sequence (P08913 whole entry): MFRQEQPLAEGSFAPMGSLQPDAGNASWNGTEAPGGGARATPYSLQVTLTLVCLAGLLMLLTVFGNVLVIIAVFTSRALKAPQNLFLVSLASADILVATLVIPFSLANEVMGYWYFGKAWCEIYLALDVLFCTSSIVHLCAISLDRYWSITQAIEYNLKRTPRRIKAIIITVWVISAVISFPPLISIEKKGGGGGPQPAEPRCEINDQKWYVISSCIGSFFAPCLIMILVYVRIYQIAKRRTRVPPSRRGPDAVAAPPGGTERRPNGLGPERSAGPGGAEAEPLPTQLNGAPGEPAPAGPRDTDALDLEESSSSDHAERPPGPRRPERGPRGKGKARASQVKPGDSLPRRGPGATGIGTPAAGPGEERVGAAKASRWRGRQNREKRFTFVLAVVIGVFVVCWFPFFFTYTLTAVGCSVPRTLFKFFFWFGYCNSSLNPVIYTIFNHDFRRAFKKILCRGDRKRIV

Adenosine A1 = Adenosine A1 (Homo sapiens, UniProt P30542); experiment: Radioligand displacement; type: binding; settings: read-out: Inhib. (%)
suite of 31 CNS targets = experiment: Binding across a suite of 31 CNS targets; settings: 10 μM
Dopamine D2S = Dopamine D2S (Homo sapiens, UniProt P14416); experiment: Radioligand displacement; type: binding; settings: read-out: Inhib. (%)
Dopamine D2S, sequence (P14416 1-414 isoform P14416-2): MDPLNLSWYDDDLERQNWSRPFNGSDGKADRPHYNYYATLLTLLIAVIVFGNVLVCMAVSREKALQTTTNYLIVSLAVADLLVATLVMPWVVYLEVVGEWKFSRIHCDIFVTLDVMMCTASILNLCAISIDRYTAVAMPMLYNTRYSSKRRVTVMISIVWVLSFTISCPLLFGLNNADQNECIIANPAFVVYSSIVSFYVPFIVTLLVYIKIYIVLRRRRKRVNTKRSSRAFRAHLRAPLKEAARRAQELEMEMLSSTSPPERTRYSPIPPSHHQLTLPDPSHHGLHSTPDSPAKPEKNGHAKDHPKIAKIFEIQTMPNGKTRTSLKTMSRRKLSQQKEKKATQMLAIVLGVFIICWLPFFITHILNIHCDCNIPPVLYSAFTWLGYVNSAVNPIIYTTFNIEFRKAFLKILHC

Glutamate – NMDA = experiment: Radioligand displacement; type: binding; settings: 10 μM fenethylline, average of two replicates
Sigma σ1 = Sigma σ1 (Homo sapiens, UniProt Q99720); experiment: Radioligand displacement; type: binding; settings: read-out: Inhib. (%)
Sigma σ1, sequence (Q99720 whole entry): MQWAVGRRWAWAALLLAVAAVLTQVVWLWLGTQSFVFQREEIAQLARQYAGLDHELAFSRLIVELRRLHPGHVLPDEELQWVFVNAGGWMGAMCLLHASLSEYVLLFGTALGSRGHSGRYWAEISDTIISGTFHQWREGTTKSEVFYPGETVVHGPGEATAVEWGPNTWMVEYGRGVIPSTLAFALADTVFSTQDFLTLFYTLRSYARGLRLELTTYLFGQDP

Swiss Webster mice [3] = experiment: Open field hyperlocomotor activity assay; type: in vivo
Muscarinic M3 = Muscarinic M3 (Homo sapiens, UniProt P20309); experiment: Radioligand displacement; type: binding; settings: read-out: Inhib. (%)
Muscarinic M3, sequence (P20309 whole entry): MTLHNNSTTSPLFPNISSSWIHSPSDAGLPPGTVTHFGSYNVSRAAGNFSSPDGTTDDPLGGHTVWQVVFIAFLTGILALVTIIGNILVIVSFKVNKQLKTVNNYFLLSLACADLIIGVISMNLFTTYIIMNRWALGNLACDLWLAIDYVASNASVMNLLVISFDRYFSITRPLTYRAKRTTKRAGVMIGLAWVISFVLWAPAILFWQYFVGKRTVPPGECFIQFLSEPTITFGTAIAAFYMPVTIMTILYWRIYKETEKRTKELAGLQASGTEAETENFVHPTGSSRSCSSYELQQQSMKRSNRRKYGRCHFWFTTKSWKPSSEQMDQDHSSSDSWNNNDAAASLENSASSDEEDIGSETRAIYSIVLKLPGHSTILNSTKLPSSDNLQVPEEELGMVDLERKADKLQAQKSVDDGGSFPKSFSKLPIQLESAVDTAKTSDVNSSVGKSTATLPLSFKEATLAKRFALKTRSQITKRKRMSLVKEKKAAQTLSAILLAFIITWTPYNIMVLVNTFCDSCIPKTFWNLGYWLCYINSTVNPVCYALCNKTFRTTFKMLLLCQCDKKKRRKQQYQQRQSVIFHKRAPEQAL

GABAA – Site 2 = experiment: Radioligand displacement; type: binding; settings: 10 μM fenethylline, average of two replicates
Adrenergic α1A = experiment: Radioligand displacement; type: binding; settings: 10 μM fenethylline, average of two replicates
Swiss Webster mice [4] = experiment: Elevated plus maze; type: in vivo; settings: EPM; fenethylline 20 mg/kg
AdenosineA2A = AdenosineA2A (Homo sapiens, UniProt P29274); experiment: Radioligand displacement; type: binding; settings: read-out: Inhib. (%)
AdenosineA2A, sequence (P29274 whole entry): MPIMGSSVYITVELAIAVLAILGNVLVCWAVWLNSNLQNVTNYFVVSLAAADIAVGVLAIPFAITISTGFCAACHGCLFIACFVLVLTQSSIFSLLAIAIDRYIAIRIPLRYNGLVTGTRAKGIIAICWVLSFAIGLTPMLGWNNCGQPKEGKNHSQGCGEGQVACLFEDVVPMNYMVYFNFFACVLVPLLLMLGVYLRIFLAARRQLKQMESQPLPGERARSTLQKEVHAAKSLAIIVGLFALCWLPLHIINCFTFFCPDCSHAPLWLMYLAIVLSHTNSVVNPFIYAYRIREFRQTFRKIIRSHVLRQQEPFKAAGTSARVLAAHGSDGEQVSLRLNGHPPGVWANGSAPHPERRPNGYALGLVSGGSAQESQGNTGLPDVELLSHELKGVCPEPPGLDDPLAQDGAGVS

Norepi. Transporter = Norepi. Transporter (Homo sapiens, UniProt P23975); experiment: Radioligand displacement; type: binding; settings: read-out: Inhib. (%)
Rolipram = experiment: Radioligand displacement; type: binding; settings: 10 μM fenethylline, average of two replicates

CC(Cc1ccccc1)NCCn1cnc2c1c(=O)n(C)c(=O)n2C (stereo not shown) [fenethylline, Fenethylline]
Inhib. (%) (Phorbol Ester): 9%
Inhib. (%) (Nicotinic Ach): 2%
inhibition at 10 µM (Muscarinic M2): -6%
penetration of liberated amphetamine into brain tissue [1]: lags behind that of directly administered amphetamine
Inhib. (%) (Adrenergic α1B): 16%
induction of conditioned place preference (Swiss Webster mice [2]): induce CPP
Inhib. (%) (L-Type Ca Channel): 6%
inhibition at 10 µM (Cannabinoid CB1): 16%
inhibition at 10 µM (Adrenergic β2): 3%
inhibition at 10 µM (Adrenergic β1): 9%
Inhib. (%) (GABAA – Site 1): 0%
inhibition at 10 µM (Nicotinic Ach α1): 9%
inhibition at 10 µM (Prostanoid EP4): 3%
inhibition at 10 µM (Adrenergic α2A): 16%
inhibition at 10 µM (Adenosine A1): 0%
binding across a suite of 31 CNS targets (suite of 31 CNS targets): little binding
inhibition at 10 µM (Dopamine D2S): 1%
Inhib. (%) (Glutamate – NMDA): 10%
inhibition at 10 µM (Sigma σ1): 7%
onset of stimulant (hyperlocomotor) activity (Swiss Webster mice [3]; fenethylline 20 mg/kg vs amphetamine 2 mg/kg): more rapid than that of amphetamine alone
locomotor activity after drug in control animals (Swiss Webster mice [3]; open field, control (KLH) animals): clear dose-dependent increase
inhibition at 10 µM (Muscarinic M3): 2%
Inhib. (%) (GABAA – Site 2): 5%
Inhib. (%) (Adrenergic α1A): 27%
time spent in open arms after drug in control animals (Swiss Webster mice [4]): reduced the time
inhibition at 10 µM (AdenosineA2A): -5%
inhibition at 10 µM (Norepi. Transporter): 10%
Inhib. (%) (Rolipram): 9%

— publication PMC5957549 (Nature, 2017)
